The text below walks through data of patent US10722582B2, “Targeted antimicrobial photodynamic therapy” (Purdue Research Foundation, priority 2018, dated 2020).

Data set [1] relates to S. aureus (PCI 1203; ATCC 10537). The data set can be described thus: aPDI with CFL irradiation (406 nm), planktonic bacteria, drop-plate colony count. The class given is cell-based, Staphylococcus aureus. The settings on record: for potency relative to dark toxicity (0 min exposure): 3-log reduction. The method, then: The aPDI properties of Ga-PpIX were compared against PpIX, whose photosensitizer activities are well known and whose optical profile is similar to that of Ga-PpIX (FIG. 2).
(§1) All bacterial strains were cultured at 37° C. in an aerobic atmosphere unless otherwise noted. […] Bacterial counts were estimated in units of cfu/mL by plating serial dilutions onto agar plates, followed by incubation for 16 hours at 37° C. […] Further details and variations on iron-deficient culture conditions are provided in Supporting Information.
(§2) Antimicrobial assays were performed on planktonic bacteria at 10^7 cfu/mL with variable exposure times to CFL irradiation, followed by plating on agar and incubation at 37° C. […] The irradiated bacteria were plated onto agar in serial tenfold dilutions (10^7-10^1 cfu/mL); controls included one set of wells without photosensitizer, and one set of wells with photosensitizer but without 15 min irradiation, prior to plating (dark toxicity). Bacterial counts were determined by the drop-plate method using TS-agar plates, and reported in colony-forming units per milliliter (cfu/mL).
(§3) The irradiation source consisted of a 20-W compact fluorescent lightbulb (CFL; Sunlite SL20/BLB) housed in an ellipsoidal reflector dome.

A further data set has as its system S. epidermis (ATCC 155). The description is as above. The class given is cell-based, Staphylococcus epidermidis. The settings on record: for potency relative to dark toxicity (0 min exposure): 15 min CFL, 3-log reduction. As for the experimental part: as §1, §2, §3
For data set [2], the system named is S. aureus. The data set can be described thus: Antibacterial activity assay with LED light. The class given is cell-based, Staphylococcus aureus. The method, then: (§4) Antibacterial activity assay general protocol: Used LED light to test conditions. Bacteria were grown in TS broth, followed by 3 mM bipyridine in TS broth until log phase. Bacteria were then diluted with PBS, to OD 0.1 (˜10^) and then to ˜10^7 cfu/mL. 100 uL of bacteria were placed in 96 well plates with the appropriate GaPpIX concentration. 2× serial dilutions were then done to obtain other GaPpIX concentrations. Each concentration was done in triplicate. Bacteria were left incubating and irradiating for different amount of times at different light powers or left in the dark. 10× Serial dilutions were done and bacteria were plated for colony counting using the drop-plate technique. Colonies were counted after 24 hours. As reported herein, a 3-log reduction equals measurable antimicrobial action; a 6-log reduction equals total eradication.
Stock solution preparation (AVM-3-36, 10 nm AgNP). Prepared a solution of (AVM-2-273) GaPpIX-apoHb 1 mg/mL in MP H2O, deaerated. Took 10 mL of 10 nm AgNPs, centrifuged at 900 G for 5 min (Beckman, 3100 RPM), took supernantant and added 200 uL of GaPpIXHb. After overnight, centrifuged 3000 RPM g for 5 minutes (Beckman). Took supernantant and centrifuged using a 100 K CentriCon tube at 4000 RPM for 5 minutes, 3×. Added 15 mM borate buffer to NPs. Based on calibration curve, the stock solution is 1.94 ug/mL AgNP, so stock: 79 μg/mL AgNP, 10.37 μg/mL GaPpIXHb, 0.446 μg/mL GaPpIX (refer to AVM-2-293A and AVM-3-3).
The following antibacterial activity measurements were assayed in the presence of AgNP.

A further data set has as its system S. aureus (PCI 1203). The data set can be described thus: Competitive hemin uptake assay (fluorescence microscopy). The settings on record: standard conditions (TS media); no background subtraction. The class given is cell-based, Staphylococcus aureus.
Data set [3] in a line: Photophysical measurements (absorption, fluorescence quantum yield). The class given is physicochemical. The text has this: Hemin chloride and all reagents were obtained from commercial sources, and used as received unless otherwise noted. Dimethyl sulfoxide (DMSO) was distilled over CaH2 under reduced pressure. Deionized water was obtained from an ultrafiltration system (Milli-Q, Millipore) with a resistivity >18 MΩ·cm, and passed through a 0.22-μm filter to remove particulate matter. Absorption spectra were collected on a Varian Cary50 spectrometer; fluorescence emission data were collected on a Cary Eclipse fluorimeter with a gate time of 5 ms. ^1H NMR spectra were obtained in CDCl3 or DMSO-d6 using a Varian 800-MHz spectrometer; all chemical shifts (δ) reported in ppm.
The quantum yield of Ga-PpIX in deaerated DMSO was determined to be 6.3%, using Ru(II)(bipy)3Cl2 in aerated acetonitrile as a standard.

The test system of a further data set is CSHR-expressing bacteria. The data set can be described thus: Bacterial uptake of GaPpIX, time to saturation. The class given is cell-based. The method, then:
Bacteria were cultured and assayed in iron-deficient media unless otherwise noted. A stock solution of Ga-PpIX (14.6 μM) was prepared by dispersing 5 mg in 1 mL of 10% DMSO in PBS for 10 minutes in an ultrasonic cleaning bath protected from light, followed by filtration and 10× dilution in PBS just prior to use. Bacterial suspensions (0.5 mL) were treated with freshly prepared solutions of PpIX derivatives for specified periods (5-15 min), then harvested by centrifugation at 5.2 g for 5 minutes, redispersed twice in 0.5 mL deionized water, and centrifuged a third time. A 10-μL aliquot of concentrated bacteria was deposited onto a glass slide and dried in air for 20 min, then imaged by fluorescence microscopy as described above. For details on fluorescence image processing and quantitative analysis, see Supporting Information.
Darkfield and fluorescent images were acquired in succession, with the former used to map regions of interest (ROIs) by tracing the outlines of bacteria (FIG. 8). Three images were acquired for each sample; in each case, the tracing map was overlaid onto the fluorescence image to calculate pixel intensities within each ROI, using the mean pixel intensity for quantitative analysis. […]

In data set [4] the test system is S. aureus. Nature of the data set: aPDI with 405-nm LED bar, summary over strains. The class given is cell-based, Staphylococcus aureus. The settings on record: 10 seconds, 405-nm light-emitting diode bar (99 mW/cm^2), fluence about 1 J/cm^2. The method, then: as §4
The subject of a further data set is HEK cells. Nature of the data set: Cytotoxicity against HEK cells. The settings on record: read-out: IC50 (cytotoxicity).
Where [5] appears, read: 0 min (dark), no irradiation (dark toxicity).
Where [6] appears, read: 15 min CFL 406 nm, 12.4 mW/cm^2 (11.2 J/cm^2).

As a reminder, the IC50 is the concentration that gives 50% inhibition.

Marks after values point to notes of the source that are not given here.

For the compound `C=CC1=C(C)c2cc3[nH]c(cc4nc(cc5[nH]c(cc1n2)c(C)c5CCC(=O)O)C(CCC(=O)O)=C4C)c(C)c3C=C` [PpIX (2), PpIX, reference compound], the “Antimicrobial activity (minimum 3-log CFU reduction)” value is reported as 36 μM in data set [1] (setting [5]); 1.1 μM in data set [1] (setting [6]); >146 μM with S. epidermis (ATCC 155) (setting [5]); >146^d μM with S. epidermis (ATCC 155) (0 min (dark), no irradiation (dark toxicity), listed as PpIX); 4.5 μM with S. epidermis (ATCC 155) (15 min CFL (11.2 J/cm^2)); 4.6 μM in the data set on S. epidermis (ATCC 155) (15 min CFL (11.2 J/cm^2), listed as PpIX). Also, the “Eradication (6 log reduction)” value in data set [1] (15 min CFL (11.2 J/cm^2)) was 2.3 μM; in data set [1] (No irradiation (dark toxicity)), 73 μM; in the data set with S. epidermis (ATCC 155) (15 min CFL (11.2 J/cm^2)) it was 9 μM; in the data set with S. epidermis (ATCC 155) (No irradiation (dark toxicity)), >146 μM. Moreover, the entries for the “potency relative to dark toxicity (0 min exposure)” value (in data set [1] (15 min CFL); in the data set on S. epidermis (ATCC 155)) were 32x and >32x, respectively. Further, the “concentration for 3-log reduction (measurable antimicrobial action)” value in the data set with S. aureus [2] was found to be 940 nM. Further, the “concentration for 6-log reduction (total eradication)” value in the data set on S. aureus [2] was 1900 nM. The “Fluorescence after 15 min” value in the data set on S. aureus (PCI 1203) is given as 11.90 a.u. Moreover, in the data set with S. aureus (PCI 1203), the “Fluorescence after 15 min exposure + 1 equiv. hemin” value is recorded as 10.15 a.u.
With Ga(III)-protoporphyrin [Ga-PpIX (1)], the “Antimicrobial activity (minimum 3-log CFU reduction)” value in data set [1] (setting [5]) is >60 μM; in data set [1] (5 min CFL 406 nm, 12.4 mW/cm^2 (3.7 J/cm^2)), 3.75 μM; in data set [1] (setting [6]), 0.47 μM; with S. epidermis (ATCC 155) (setting [5]), 146 μM; in the data set with S. epidermis (ATCC 155) (15 min CFL (11.2 J/cm^2)), 0.57 μM. Moreover, the “Eradication (6 log reduction)” value was 15 μM in data set [1] (5 min CFL (3.7 J/cm^2)); 7.5 μM in data set [1] (15 min CFL (11.2 J/cm^2)); 120 μM in data set [1] (No irradiation (dark toxicity)); 1.1 μM in the data set on S. epidermis (ATCC 155) (15 min CFL (11.2 J/cm^2), listed as Ga-PpIX); 4.5 μM in the data set on S. epidermis (ATCC 155) (15 min CFL (11.2 J/cm^2), listed as GaPpIX (1)); 146 μM in the data set on S. epidermis (ATCC 155) (No irradiation (dark toxicity)). The “potency relative to dark toxicity (0 min exposure)” value in data set [1] (5 min CFL) is on record as >16x; in data set [1] (15 min CFL), >128x; in the data set on S. epidermis (ATCC 155), 256x. For the same compound, the “concentration for >99.9% reduction” value in data set [1] (15 minutes of CFL irradiation) was found to be 470 nM. For the same compound, in data set [1] (15 minutes of CFL irradiation), the “increase in potency relative to Ga-PpIX dark toxicity (>99.9% reduction)” value came to 128 fold. Further, the “increase in potency relative to Ga-PpIX dark toxicity (total eradication, >6 log reduction)” value in data set [1] (15 minutes of CFL irradiation) worked out at 16 fold. This compound also returned a bactericidal activity in the data set with S. epidermis (ATCC 155) (CFL irradiation, clinical isolate from a skin lesion) of 570 nM. Also, the “concentration for 3-log reduction (measurable antimicrobial action)” value with S. aureus [2] is given as 59 nM. For the same compound, the “concentration for 6-log reduction (total eradication)” value in the data set with S. aureus [2] amounted to 235 nM. In data set [3] (DMSO, λmax=410 nm, 0.4-10 μM), the “molar extinction coefficient ε” value was 154000 M⁻¹ cm⁻¹. Besides, the fluorescence quantum yield in data set [3] (deaerated DMSO, Ru(II)(bipy)3Cl2 in aerated acetonitrile as standard) came to 6.3%. Moreover, the “time to saturation of uptake” value with CSHR-expressing bacteria is “under 15 minutes”. Also, in the data set with S. aureus [4], the “GaPpIX concentration showing aPDI efficacy” value fell in the range of 0.06 to 0.12 µM. Further, the “Fluorescence after 15 min” value with S. aureus (PCI 1203) stood at 18.09 a.u. The “Fluorescence after 15 min exposure + 1 equiv. hemin” value with S. aureus (PCI 1203) turned out to be 15.08 a.u. Also, in the data set on HEK cells, the IC50 is > 10 µM.
